Earlier results on 2 molecules are cited in EP0548940B1, “Insecticidal compositions” (SUMITOMO CHEMICAL COMPANY LIMITED, priority 1991, dated 1993).

The conditions of the series: at 25°C, water-diluted solution.

For `OB(O)O` [Boric acid], the pKa value result is listed as “Boric acid 4.8 (9.24)”.

For the molecule `O=C(O)CCCCCCCC(=O)O` [Azelaic acid], the pKa value result was “Azelaic acid 4.8 (4.39)”.
